Measurements taken from patent US4318917A, “Antiinflammatory 2,3-diaryl-5-[2,2,2-trifluoro-1-(trifluoromethyl]ethyl-1H-pyrroles” (E. I. Du Pont de Nemours and Company, priority 1981, dated 1982).

System: adjuvant-induced arthritis in rats
Assay: Established Adjuvant-Induced Arthritis in Rats (paw volume)
Type: in vivo, rat (Charles River Lewis male rats)
Conditions: oral gavage, 7 daily doses; for ED50: Rattus norvegicus, uninjected left hind paw, established adjuvant arthritis, read-out: Adjuvant Arthritis ED50 (ED50% decrease from control paw volume)
Procedure: A procedure for detecting and comparing the antiinflammatory activity of compounds in this series and standard drugs for which there is a good correlation with human efficacy is the adjuvant-induced arthritis test in rats.
The test procedure employed for determining antiinflammatory activity is described below.
Established Adjuvant-Induced Arthritis in Rats
Charles River Lewis male rats (130-150 grams) are injected subcutaneously in plantar area of the right hind paw with 0.1 ml of adjuvant (Difco heat-killed, lyophilized Mycobacterium butyricum suspended in mineral oil 5 mg/ml). 20 Non-arthritic controls are injected with mineral oil. The animals are held for 2 weeks to allow development of arthritis. Paw volumes (uninjected, left hind paw) are measured and the adjuvant injected rats are culled and distributed to treatment groups of 10 of equal disease severity. Non-arthritic controls are distributed to 2 groups of 10. The rats are given oral doses of compound or PVA-Acacia (Polyvinyl Alcohol 1%, Gum Acacia, U.S.P. 5%, Methylparaben 0.5%) (10 ml/kg) by gavage on that day and on the 6 following days. One day after the last dose the paw volumes (uninjected, left hind paw) are measured using a Ugo Basile Volume Differential Meter Model 7101. [formula]
% Decrease from Control Mean Paw Volume.
Dose-response regression lines of the % decrease are plotted on semi-log paper by visual fit and the ED50% decrease from control paw volume is determined by inspection.

**Q.** For `CSc1ccc(-c2[nH]c(C(C(F)(F)F)C(F)(F)F)cc2-c2ccc(F)cc2)cc1` [Example 6], which ED50 is on record?
**A.** 2.5 mg/kg

**Q.** For `Fc1ccc(-c2cc(C(C(F)(F)F)C(F)(F)F)[nH]c2-c2cccnc2)cc1` [Example 5], which “percent reduction in paw volume at the indicated dose” value (at 5 mg/kg) is on record?
**A.** 0%

**Q.** For `FC(F)(F)C(c1cc(-c2ccc(Cl)cc2)c(-c2ccc(Cl)cc2)[nH]1)C(F)(F)F` [Example 3], which ED50 is on record?
**A.** 15 mg/kg

**Q.** How did the ED50 turn out when `FC(F)(F)C(c1cc(-c2ccccc2)c(-c2ccccc2)[nH]1)C(F)(F)F` [Example 1, 2,3-Diphenyl-5-[2,2,2-trifluoro-1-(trifluoromethyl)-ethyl]-1H-pyrrole] was run?
**A.** 11 mg/kg

**Q.** For `Fc1ccc(-c2cc(C(C(F)(F)F)C(F)(F)F)[nH]c2-c2ccc(Br)cc2)cc1` [Example 4], which ED50 is on record?
**A.** 3.9 mg/kg

**Q.** For `Fc1ccc(C2=CC(=C(C(F)(F)F)C(F)(F)F)N=C2c2ccc(F)cc2)cc1` [Example 17, 4,5-Bis(4-fluorophenyl)-2-[2,2,2-trifluoro-1-(trifluoromethyl)ethylidene]-2H-pyrrole], which ED50 is on record?
**A.** 33 mg/kg

**Q.** Which “percent reduction in paw volume at the indicated dose” value (at 25 mg/kg) does the source give for `Fc1ccc(C2=CC(=C(C(F)(F)F)C(F)(F)F)N=C2c2ccc(Br)cc2)cc1` [Example 18, 5-(4-bromophenyl)-4-(4-fluorophenyl)-2-[2,2,2-trifluoro-1-(trifluoromethyl)ethylidene]-2H-pyrrole] here?
**A.** 16%

**Q.** How did the ED50 turn out when `Fc1ccc(-c2cc(C(C(F)(F)F)C(F)(F)F)[nH]c2-c2ccc(F)cc2)cc1` [Example 2, 2,3-Bis(4-fluorophenyl)-5-[2,2,2-trifluoro-1-(trifluoromethyl)ethyl]-1H-pyrrole] was run?
**A.** 4 mg/kg
